Measurements reported in the supplement of paper PMC13380429.

What was measured:
Conditions in all cases: 72 h
Vero E6 [1] = assay: drug sensitivity score (DSS) for viability; higher = more toxic; extreme values may be limits of the assay
U2OS [2] = assay: as above
Caco-2 [3] = assay: as above
HepG2 [4] = assay: as above
Vero E6 [5] = assay: relative viability EC50 (midpoint between 100% and the lowest measured viability); higher = less toxic
U2OS [6] = assay: as above
Caco-2 [7] = assay: as above
HepG2 [8] = assay: as above
Vero E6 [9] = assay: cell viability relative to DMSO; higher = less toxic
U2OS [10] = assay: as above
Caco-2 [11] = assay: as above
HepG2 [12] = assay: as above
Calu-3 [13] = assay: drug sensitivity score (DSS) for viability; higher = more toxic; extreme values may be limits of the assay
Calu-3 [14] = assay: cell viability relative to DMSO; higher = less toxic

Row | Compound | drug sensitivity score (Vero E6 [1]) | drug sensitivity score (U2OS [2]) | drug sensitivity score (Caco-2 [3]) | drug sensitivity score (HepG2 [4]) | relative viability EC50 (Vero E6 [5]) [µM] | relative viability EC50 (U2OS [6]) [µM] | relative viability EC50 (Caco-2 [7]) [µM] | relative viability EC50 (HepG2 [8]) [µM] | cell viability (Vero E6 [9]; 1 nM) [%] | cell viability (Vero E6 [9]; 10 nM) [%] | cell viability (Vero E6 [9]; 100 nM) [%] | cell viability (Vero E6 [9]; 1000 nM) [%] | cell viability (Vero E6 [9]; 10000 nM) [%] | cell viability (U2OS [10]; 1 nM) [%] | cell viability (U2OS [10]; 10 nM) [%] | cell viability (U2OS [10]; 100 nM) [%] | cell viability (U2OS [10]; 1000 nM) [%] | cell viability (U2OS [10]; 10000 nM) [%] | cell viability (Caco-2 [11]; 1 nM) [%] | cell viability (Caco-2 [11]; 10 nM) [%] | cell viability (Caco-2 [11]; 100 nM) [%] | cell viability (Caco-2 [11]; 1000 nM) [%] | cell viability (Caco-2 [11]; 10000 nM) [%] | cell viability (HepG2 [12]; 1 nM) [%] | cell viability (HepG2 [12]; 10 nM) [%] | cell viability (HepG2 [12]; 100 nM) [%] | cell viability (HepG2 [12]; 1000 nM) [%] | cell viability (HepG2 [12]; 10000 nM) [%] | drug sensitivity score (Calu-3 [13]) | cell viability (Calu-3 [14]; 1 nM) [%] | cell viability (Calu-3 [14]; 10 nM) [%] | cell viability (Calu-3 [14]; 100 nM) [%] | cell viability (Calu-3 [14]; 1000 nM) [%] | cell viability (Calu-3 [14]; 10000 nM) [%]
1 | CC(C)NCC(O)c1ccccc1Cl (centres undefined) [clorprenaline] | 0 | 0 | 0 | 0 | > 10 | > 10 | > 10 | > 10 | 99.8 | 95 | 99.8 | 99.6 | 106 | 94 | 103 | 95.6 | 102 | 103 | 99.7 | 104 | 94.7 | 93.7 | 102 | 101 | 102 | 93.4 | 97.3 | 113 | – | – | – | – | – | –
2 | O=C(O)[C@@H](S)[C@@H](S)C(=O)O [dimercaptosuccinic-acid] | 0 | 0 | 0 | – | > 10 | > 10 | > 10 | – | 99.7 | 102 | 100 | 101 | 104 | 101 | 98.2 | 101 | 101 | 105 | 107 | 90.7 | 94.2 | 95.8 | 110 | – | – | – | – | – | – | – | – | – | – | –
3 | N=C(Nc1ccccc1)Nc1ccccc1 [diphenylguanidine] | 0 | 0 | 0 | 0 | > 10 | > 10 | > 10 | > 10 | 100 | 95.1 | 103 | 91.8 | 104 | 98.4 | 98 | 95.3 | 100 | 106 | 92.4 | 93.5 | 91.5 | 94.2 | 107 | 117 | 92.6 | 103 | 101 | 101 | – | – | – | – | – | –
4 | C[C@H](Nc1ncnc2nc[nH]c12)c1cc2cccc(Cl)c2c(=O)n1-c1ccccc1 [duvelisib] | 1.4 | 1.7 | 4.1 | 3 | > 10 | > 10 | – | – | 105 | 101 | 94.9 | 91.8 | 76.3 | 99.4 | 92.2 | 96.1 | 88.6 | 75.5 | 99.8 | 95.4 | 91.7 | 84.1 | 52.5 | 91.8 | 96.5 | 97.9 | 89.5 | 65.9 | 3.8 | 98.6 | 102 | 101 | 88.9 | 58.6
